Common to all, as to type: cell-based
Data set [1] addresses T1, SVCT1 (Homo sapiens, UniProt Q9UHI7).
T1 construct: gene SLC23A1
The experiment in a line: inhibition of […]-vitamin C uptake in SVCT1-expressing […] cells (urate uptake IC50 […]).

The target in data set [2] is T1, SVCT1. Described as above. This is another data set of the same source.
Data set [3] deals with T1, SVCT1. The data set is described as above. The source holds these as a separate data set.
A further data set concerns the target T2, GLUT9a (Homo sapiens, UniProt Q9NRM0).
T2 construct: gene SLC2A9; full-length human GLUT9a/SLC2A9a WT in pEGFP-N1
T2 sequence (Q9NRM0 1-540): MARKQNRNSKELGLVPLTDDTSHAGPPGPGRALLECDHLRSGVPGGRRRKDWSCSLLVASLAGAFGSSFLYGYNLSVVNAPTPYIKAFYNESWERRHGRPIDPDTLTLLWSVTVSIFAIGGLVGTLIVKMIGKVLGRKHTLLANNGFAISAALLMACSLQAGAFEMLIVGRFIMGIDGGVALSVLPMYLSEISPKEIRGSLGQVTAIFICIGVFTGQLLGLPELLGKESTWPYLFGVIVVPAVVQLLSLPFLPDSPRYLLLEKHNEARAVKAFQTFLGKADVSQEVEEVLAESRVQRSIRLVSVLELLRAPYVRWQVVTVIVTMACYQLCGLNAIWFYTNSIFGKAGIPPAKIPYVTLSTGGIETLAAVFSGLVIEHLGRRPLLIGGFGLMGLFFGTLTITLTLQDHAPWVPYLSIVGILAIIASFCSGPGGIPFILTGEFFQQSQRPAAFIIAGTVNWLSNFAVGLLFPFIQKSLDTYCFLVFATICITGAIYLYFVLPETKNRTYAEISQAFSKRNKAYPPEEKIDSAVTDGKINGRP
Nature of the data set: [[…]-14C]-urate uptake in GLUT9a-expressing cells, high-potassium buffer.

For a further data set, the target named is T3, URAT1 (Homo sapiens, UniProt Q96S37).
T3 construct: gene SLC22A12; full-length human URAT1 WT in pEGFP-C1
T3 sequence (Q96S37 1-553): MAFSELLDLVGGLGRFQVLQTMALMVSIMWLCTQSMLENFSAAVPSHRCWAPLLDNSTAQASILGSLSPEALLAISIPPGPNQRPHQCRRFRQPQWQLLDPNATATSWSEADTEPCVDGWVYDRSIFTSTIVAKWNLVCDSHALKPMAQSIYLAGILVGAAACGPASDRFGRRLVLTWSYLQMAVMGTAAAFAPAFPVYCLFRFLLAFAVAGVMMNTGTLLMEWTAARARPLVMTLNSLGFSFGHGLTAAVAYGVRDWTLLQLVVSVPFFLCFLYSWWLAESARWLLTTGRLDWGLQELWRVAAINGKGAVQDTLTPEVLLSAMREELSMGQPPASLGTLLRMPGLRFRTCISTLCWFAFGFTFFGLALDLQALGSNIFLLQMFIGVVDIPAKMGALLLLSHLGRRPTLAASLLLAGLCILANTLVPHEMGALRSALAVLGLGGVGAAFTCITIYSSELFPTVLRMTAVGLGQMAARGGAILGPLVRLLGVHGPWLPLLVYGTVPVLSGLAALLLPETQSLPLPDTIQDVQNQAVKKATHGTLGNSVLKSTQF
Nature of the data set: [[…]-14C]-urate uptake in URAT1-expressing HEK293 cells.

The next data set addresses T4, ABCG2 (Homo sapiens, UniProt Q9UNQ0).
T4 construct: EGFP-ABCG2 in plasma membrane vesicles from 293A cells
T4 sequence (Q9UNQ0 1-655): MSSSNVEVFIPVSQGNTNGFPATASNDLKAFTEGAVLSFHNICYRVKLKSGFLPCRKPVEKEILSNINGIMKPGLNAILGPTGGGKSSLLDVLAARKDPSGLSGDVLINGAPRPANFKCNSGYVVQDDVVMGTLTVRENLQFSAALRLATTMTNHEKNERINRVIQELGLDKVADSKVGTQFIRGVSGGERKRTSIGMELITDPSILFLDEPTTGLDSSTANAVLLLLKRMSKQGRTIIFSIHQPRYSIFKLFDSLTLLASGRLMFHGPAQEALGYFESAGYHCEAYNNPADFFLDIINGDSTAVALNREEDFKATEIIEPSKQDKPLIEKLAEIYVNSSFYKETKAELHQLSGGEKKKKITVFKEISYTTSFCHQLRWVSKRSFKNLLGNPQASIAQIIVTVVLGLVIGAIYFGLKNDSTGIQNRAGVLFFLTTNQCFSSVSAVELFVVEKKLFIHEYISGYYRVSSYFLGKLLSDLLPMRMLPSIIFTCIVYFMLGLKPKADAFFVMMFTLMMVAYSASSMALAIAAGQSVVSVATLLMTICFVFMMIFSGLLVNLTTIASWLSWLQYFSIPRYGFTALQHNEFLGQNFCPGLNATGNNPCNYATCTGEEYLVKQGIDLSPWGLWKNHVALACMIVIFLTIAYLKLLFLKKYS

For data set [4], the target named is T1, SVCT1. Nature of the data set: […]-vitamin C uptake and inhibition of […]-urate uptake in SVCT1-expressing HEK293 cells.
For data set [5], the target named is T5, Svct1 (Mus musculus, UniProt Q9Z2J0).
T5 construct: gene Slc23a1; mouse Svct1 WT, EGFP fusion
Nature of the data set: […]-vitamin C uptake and inhibition of […]-urate uptake in Svct1-expressing HEK293 cells.

We go through five molecules from PMC10011331, “Vitamin C transporter SVCT1 serves a physiological role as a urate importer: functional analyses and in vivo investigations” (Pflugers Archiv, 2023).

The term IC50 denotes the concentration that inhibits the measured activity by half. Read a high IC50 as lower potency.

T1 sequence (Q9UHI7 whole entry): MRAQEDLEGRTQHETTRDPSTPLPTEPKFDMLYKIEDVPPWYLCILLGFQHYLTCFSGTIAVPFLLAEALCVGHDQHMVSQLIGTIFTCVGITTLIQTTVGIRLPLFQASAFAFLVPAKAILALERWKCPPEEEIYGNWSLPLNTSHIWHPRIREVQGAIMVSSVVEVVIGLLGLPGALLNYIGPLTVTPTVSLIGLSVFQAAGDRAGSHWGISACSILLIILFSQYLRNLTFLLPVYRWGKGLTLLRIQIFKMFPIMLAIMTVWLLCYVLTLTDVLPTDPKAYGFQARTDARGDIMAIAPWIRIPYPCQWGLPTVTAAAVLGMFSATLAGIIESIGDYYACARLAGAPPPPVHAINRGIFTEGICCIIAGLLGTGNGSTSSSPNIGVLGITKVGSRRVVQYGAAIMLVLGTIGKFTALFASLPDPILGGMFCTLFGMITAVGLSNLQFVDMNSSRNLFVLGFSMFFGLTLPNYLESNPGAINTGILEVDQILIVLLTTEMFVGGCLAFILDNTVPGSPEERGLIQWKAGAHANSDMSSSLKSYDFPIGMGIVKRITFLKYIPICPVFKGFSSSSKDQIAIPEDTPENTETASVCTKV
T5 sequence (Q9Z2J0 whole entry, the tested form may be a part): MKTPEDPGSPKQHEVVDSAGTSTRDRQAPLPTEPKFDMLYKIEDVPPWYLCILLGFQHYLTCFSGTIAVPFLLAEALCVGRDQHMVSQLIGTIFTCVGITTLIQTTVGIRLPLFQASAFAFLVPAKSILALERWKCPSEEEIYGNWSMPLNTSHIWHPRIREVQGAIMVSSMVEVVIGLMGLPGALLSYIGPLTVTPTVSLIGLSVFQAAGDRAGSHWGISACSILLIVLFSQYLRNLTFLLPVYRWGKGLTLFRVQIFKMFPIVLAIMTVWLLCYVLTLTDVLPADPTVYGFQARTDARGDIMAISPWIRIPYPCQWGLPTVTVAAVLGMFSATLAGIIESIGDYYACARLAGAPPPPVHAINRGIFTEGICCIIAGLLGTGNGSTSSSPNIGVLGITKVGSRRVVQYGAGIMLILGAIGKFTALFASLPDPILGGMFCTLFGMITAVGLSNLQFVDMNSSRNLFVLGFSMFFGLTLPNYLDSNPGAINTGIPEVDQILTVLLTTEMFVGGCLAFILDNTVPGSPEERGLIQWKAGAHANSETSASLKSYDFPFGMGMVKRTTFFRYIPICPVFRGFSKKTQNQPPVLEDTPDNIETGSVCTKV

For the molecule `CCc1oc2cc(O)ccc2c1C(=O)c1cc(Br)c(O)c(Br)c1` [6-OH BBR, 6-hydroxybenzbromarone], the IC50 at SVCT1 [1] came to 2.86 µM.

In turn, `CCc1oc2ccccc2c1C(=O)c1cc(Br)c(O)c(Br)c1` [BBR, benzbromarone] returned an IC50 against SVCT1 [2] of 8.39 µM. Regarding `O=C(c1cc(Cl)c(O)c(Cl)c1)N1CS(=O)(=O)c2ccccc21` [DU, dotinurad], at SVCT1 [3], the midpoint of inhibition, the IC50, lay at 11.8 µM.

Take `O=c1[nH]c(=O)c2[nH]c(=O)[nH]c2[nH]1` [urate]: the “[8-14C]-urate uptake in GLUT9a-expressing cells, high-potassium buffer” value at GLUT9a is recorded as “Even under appropriate experimental conditions in which urate transport activities were detected, neither URAT1, GLUT9, nor ABCG2 could transport vitamin C”. In addition, at URAT1, the “[8-14C]-urate uptake in URAT1-expressing HEK293 cells” value is “Even under appropriate experimental conditions in which urate transport activities were detected, neither URAT1, GLUT9, nor ABCG2 could transport vitamin C”. In addition, the “[8-14C]-urate vesicle transport assay with ABCG2-expressing membrane vesicles” value at ABCG2 is on record as “Even under appropriate experimental conditions in which urate transport activities were detected, neither URAT1, GLUT9, nor ABCG2 could transport vitamin C”.

Regarding `O=C1O[C@H]([C@@H](O)CO)C(O)=C1O` [vitamin C], the results for the IC50 on SVCT1 [4] and against Svct1 [5] were 95.1 µM and 130 µM, respectively.
